Laboratory results published in patent US20210221834A1, “SWEETENER AND SWEETENED COMPOSITIONS INCORPORATING REBAUDOSIDE N” (CARGILL, INCORPORATED, priority 2013, published 2021).
“Also recorded” adds a separate entry of the source.

Experiments:
Assay type in all cases: in vivo, human
[1] = Sensory evaluation of Reb A, Reb D and Reb N solutions in water (Example 2); parameters: key to Bitterness: 1 = none; 2 = trace; 3 = faint; 4 = mild; 5 = moderate; 6 = definite; 7 = strong; 8 = very strong; 9 = extreme; details: 500 ppm (wt/wt) in water, room temperature; for Sweetness Intensity (percent sucrose equivalent sweetness): two scientists, sucrose standards 6%, 7%, 8%; for Bitterness: intensity scale 1-9
Method: Solutions containing 500 ppm (wt/wt) of RebA, RebD and RebN, respectively, in water were prepared and evaluated at room temperature by two scientists with training and experience in the sensory evaluation of steviol glycosides. The samples were evaluated for sweetness intensity and other qualitative attributes. A set of sucrose standards were prepared by dissolving sugar into room temperature water (6%, 7%, 8% by weight) and used as references for sweetness intensity.

[2] = Sensory evaluation of three-way blends of reb A, reb B and reb N in water (Example 3); details: 500 ppm (wt/wt) in water, room temperature
Method: Solutions containing 500 ppm (wt/wt) of blends of reb A, reb B, and reb N in water were prepared and evaluated at room temperature by five scientists with training and experience in the sensory evaluation of steviol glycosides. The samples were evaluated for sweetness intensity and other qualitative attributes and compared against Reb A. The results are shown in the following table: […]

[3] = Sensory evaluation in citric/citrate buffer at pH 3.2 (Example 4); parameters: key to Bitterness intensity: 0=none; 1=trace; 2=faint; 3=slight; 4=mild; 5=moderate; 6=definite; 7=strong; 8=very strong; 9=extreme
Method: Method: Solutions containing 600 ppm (wt/wt) Reb A or blends of Reb A, Reb B and Reb N in citric/citrate buffer at pH 3.2 were prepared and evaluated at room temperature by three scientists with training and experience in the sensory evaluation of steviol glycosides. The samples were evaluated for sweetness intensity and other qualitative attributes.

[4] = Sensory evaluation of 4-way blend in deionized water (Example 5); parameters: key to Bitterness / Licorice note: 0=none; 1=trace; 2=faint; 3=slight; 4=mild; 5=moderate; 6=definite; 7=strong; 8=very strong; 9=extreme; details: 500 ppm in deionized water
Method: Method: Solutions containing 500 ppm Reb A or blends of RebA, RebB, RebD and RebN were prepared in deionized water and evaluated at room temperature by three scientists with training and experience in the sensory evaluation of steviol glycosides. The samples were evaluated for sweetness intensity and other qualitative attributes.

[5] = 600 ppm (wt/wt) in citric/citrate buffer pH 3.2

C=C1C[C@@]23CC[C@H]4[C@@](C)(CCC[C@@]4(C)C(=O)O[C@@H]4O[C@H](CO)[C@@H](O)[C@H](O)[C@H]4O)[C@@H]2CC[C@]1(O[C@@H]1O[C@H](CO)[C@@H](O)[C@H](O[C@@H]2O[C@H](CO)[C@@H](O)[C@H](O)[C@H]2O)[C@H]1O[C@@H]1O[C@H](CO)[C@@H](O)[C@H](O)[C@H]1O)C3 [Reb A, Rebaudioside A]
Other Sweetness Quality [1]: spikey; also recorded: worst
Sweetness Linger [1]: moderate
Sweetness Onset [1]: slow
Sweetness Intensity (percent sucrose equivalent sweetness) [1]: 6% SE
Bitterness [1]: 5
Sweetness intensity rated by the judges [2]: 6.0
Bitter ([2]; five scientists): moderate
Linger ([2]; five scientists): moderate
Sweet (quality) ([2]; five scientists): poor
Sweet onset ([2]; five scientists): slow
Bitter onset [3, 5]: extremely rapid
Licorice [3, 5]: slight
Lingering bitterness [3, 5]: strong
Sweet profile [3, 5]: peaky
Sucrose equivalent sweetness ([3]; 600 ppm (wt/wt) in citric/citrate buffer pH 3.2, room temperature, three scientists): 7%
Bitterness intensity ([3]; 600 ppm (wt/wt) in citric/citrate buffer pH 3.2, intensity scale 0-9): 7
Lingering bitter aftertaste [4]: moderate
Sucrose equivalent sweetness ([4]; room temperature, three scientists): 6%
Bitterness ([4]; intensity scale 0-9): 6
Licorice note ([4]; intensity scale 0-9): 3

C=C1C[C@@]23CC[C@H]4[C@@](C)(CCC[C@@]4(C)C(=O)O[C@@H]4O[C@H](CO)[C@@H](O)[C@H](O)[C@H]4O[C@@H]4O[C@H](CO)[C@@H](O)[C@H](O)[C@H]4O)[C@@H]2CC[C@]1(O[C@@H]1O[C@H](CO)[C@@H](O)[C@H](O[C@@H]2O[C@H](CO)[C@@H](O)[C@H](O)[C@H]2O)[C@H]1O[C@@H]1O[C@H](CO)[C@@H](O)[C@H](O)[C@H]1O)C3 [Reb D, Rebaudioside D]
Other Sweetness Quality [1]: rounded, and syrupy and best
Sweetness Linger [1]: slight
Sweetness Onset [1]: quick
Sweetness Intensity (percent sucrose equivalent sweetness) [1]: 7% SE
Bitterness [1]: 2

C=C1C[C@@]23CC[C@H]4[C@@](C)(CCC[C@@]4(C)C(=O)O[C@@H]4O[C@H](CO)[C@@H](O)[C@H](O[C@@H]5O[C@H](CO)[C@@H](O)[C@H](O)[C@H]5O)[C@H]4O[C@@H]4O[C@@H](C)[C@H](O)[C@@H](O)[C@H]4O)[C@@H]2CC[C@]1(O[C@@H]1O[C@H](CO)[C@@H](O)[C@H](O[C@@H]2O[C@H](CO)[C@@H](O)[C@H](O)[C@H]2O)[C@H]1O[C@@H]1O[C@H](CO)[C@@H](O)[C@H](O)[C@H]1O)C3 [Reb N]
Other Sweetness Quality [1]: rounded, and syrupy, and best
Sweetness Linger [1]: moderate
Sweetness Onset [1]: quick
Sweetness Intensity (percent sucrose equivalent sweetness) [1]: 7.5% SE
Bitterness [1]: 1
